Like-named read-outs stand apart in the source and are kept apart here.
How the values were obtained:
Kir1.1 (ROMK1) = biological target: T1, Kir1.1 (ROMK1) (Homo sapiens, UniProt P48048); experiment: Electrophysiology Assay (whole cell voltage clamp, IonWorks Quattro)
T1 sequence (P48048 1-391): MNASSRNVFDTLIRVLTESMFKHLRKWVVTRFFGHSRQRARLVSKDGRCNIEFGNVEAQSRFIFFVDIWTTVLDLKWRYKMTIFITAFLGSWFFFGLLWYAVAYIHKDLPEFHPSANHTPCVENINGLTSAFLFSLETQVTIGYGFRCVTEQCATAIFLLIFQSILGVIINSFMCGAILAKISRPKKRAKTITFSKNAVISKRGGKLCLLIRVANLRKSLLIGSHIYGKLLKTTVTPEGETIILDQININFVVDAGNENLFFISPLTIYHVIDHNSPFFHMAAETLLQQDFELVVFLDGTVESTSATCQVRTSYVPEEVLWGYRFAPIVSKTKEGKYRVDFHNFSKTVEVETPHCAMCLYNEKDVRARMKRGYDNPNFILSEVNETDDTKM
Method: Chinese hamster ovary cells stably expressing Kir1.1 channels were maintained in T-75 flasks in cell culture media in a humidified 10% CO2 incubator at 37 °C. Prior to an experiment, Kir1.1 expression was induced by overnight incubation with 1 mM sodium butyrate. […] After centrifugation, the cell pellet was resuspended in approximately 4.0 mL of bath solution and placed in the IonWorks instrument. The intracellular solution consisted of (in mM): 80 K gluconate, 40 KCl, 20 KF, 3.2 MgCl2, 3 EGTA, 5 Hepes, pH 7.4. Electrical access to the cytoplasm was achieved by perforation in 0.13 mg/mL amphotericin B for 4 min. […] Voltage protocols and current recordings were performed using the IonWorks HT software/hardware system. Currents were sampled at 1 kHz. No correction for liquid junction potentials was used. The test pulse, consisting of a 100 ms step to 0 mV from a holding potential of -70 mV, followed by a 100 ms voltage ramp from -70 mV to +70 mV, was applied before and after a 6 min compound incubation period. Test compounds were prepared by diluting DMSO stock solutions into the bath solution at 3x the final concentration and placed in the instrument in 96-well polypropylene plates. Current amplitudes were measured using the IonWorks software.

hROMK (hKir1.1) = biological target: T2, hROMK (hKir1.1) (Homo sapiens, UniProt P48048); experiment: Thallium Flux Assay; assay type: cell-based
T2 construct: expressed in transfected cells
T2 sequence (P48048 1-391): T1 sequence (P48048 1-391)
How it was run: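 HEK293 cells stably expressing hROMK, loaded with FluxOR dye 90 min at ambient temperature, then compound 30 min with 0.3 mM ouabain in probenecid buffer pH 7.4.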

[1] = HEK293 cells stably expressing hROMK (hKir1.1), FLIPR-Tetra, read-out: Thallium Flux IC50

Structure (SMILES) | IC50 (Kir1.1 (ROMK1)) | IC50 (hROMK (hKir1.1); [1]) | IC50 (hROMK (hKir1.1); Thallium Flux IC50)
Cc1c([C@@H]2CN3CCN(C(=O)Cc4ccc(-n5cnnn5)cn4)C[C@H]3CO2)ccc(F)c1C#N [Example 2, 3-((3R,9aS)-8-(2-(5-(1H-tetrazol-1-yl)pyridin-2-yl)acetyl)octahydropyrazino[2,1-c][1,4]oxazin-3-yl)-6-fluoro-2-methylbenzonitrile] | 0.07 µM | 0.12 µM | –
Cc1c([C@H]2CN3CCN(C(=O)Cc4ccc(-n5cnnn5)cn4)C[C@H]3CO2)ccc(F)c1C#N [Example 3, 3-((3S,9aS)-8-(2-(5-(1H-tetrazol-1-yl)pyridin-2-yl)acetyl)octahydropyrazino[2,1-c][1,4]oxazin-3-yl)-6-fluoro-2-methylbenzonitrile] | 0.1 µM | 0.09 µM | –
Cc1c([C@H]2CN3CCN(C(=O)Cc4ccc(-n5cnnn5)nc4)C[C@H]3CO2)ccc(F)c1C#N [Example 4, 6-fluoro-2-methyl-3-[(3S,9aS)-8-{[6-(1H-tetrazol-1-yl)pyridin-3-yl]acetyl}octahydropyrazino[2,1-c][1,4]oxazin-3-yl]benzonitrile] | 0.04 µM | – | 0.07 µM
Cc1c([C@H]2CN3CCN(C(=O)Cc4cnc(-n5cnnn5)nc4)C[C@H]3CO2)ccc(F)c1C#N [Example 6, 6-fluoro-2-methyl-3[(3S,9aS)-8-{[2-(1H-tetrazol-1-yl)pyrimidin-5-yl]acetyl}octahydropyrazino[2,1-c][1,4]oxazin-3-yl]benzonitrile] | 0.04 µM | – | 0.1 µM
Cc1c([C@H]2CN3CCN(C(=O)Cc4ccc(-n5cnnn5)nc4)C[C@@H]3CO2)ccc(F)c1C#N [Example 7, 6-fluoro-2-methyl-3-[(3S,9aR)-8-{[6-(1H-tetrazol-1-yl)pvridin-3-yl]acetyl}octahydropyrazino[2,1-c][1,4]oxazin-3-yl]benzonitrile] | 0.07 µM | – | –
Cc1c([C@@H]2CN3CCN(C(=O)Cc4ccc(-n5cnnn5)nc4)C[C@@H]3CO2)ccc(F)c1C#N [Example 8, 6-fluoro-2-methyl-3-[(3R,9aR)-8-{[6-(1H-tetrazol-1-yl)pyridin-3-yl]acetyl}octahydropyrazino[2,1-c][1,4]oxazin-3-yl]benzonitrile] | 0.04 µM | – | –
Cc1c([C@@H]2CN3CCN(C(=O)Cc4cnc(-n5cnnn5)nc4)C[C@@H]3CO2)ccc(F)c1C#N [Example 13, 6-fluoro-2-methyl-3-[(3R,9aR)-8-{[2-(1H-tetrazol-1-yl)pyrimidin-5-yl]acetyl}octahydropyrazino[2,1-c][1,4]oxazin-3-yl]benzonitrile] | 0.03 µM | – | 0.11 µM
N#Cc1cc([C@@H]2CN3CCN(C(=O)Cc4ccc(-n5cnnn5)nc4)C[C@H]3CO2)ccc1F [Example 37, 2-fluoro-5-[(3R,9aS)-8-{[6-(1H-tetrazol-1-yl)pyridin-3-yl]acetyl}octahydropyrazino[2,1-c][1,4]oxazin-3-yl]benzonitrile] | 0.02 µM | – | –
N#Cc1cc([C@@H]2CN3CCN(C(=O)Cc4ccc(-n5cnnn5)cn4)C[C@H]3CO2)ccc1F [Example 38, 2-fluoro-5-[(3R,9aS)-8-{[5-(1H-tetrazol-1-yl)pyridin-2-yl]acetyl}octahydropyrazino[2,1-c][1,4]oxazin-3-yl]benzonitrile] | 0.12 µM | – | –
COc1ccc([C@@H]2CN3CCN(C(=O)Cc4ccc(-n5cnnn5)nc4)C[C@H]3CO2)c(C)c1C#N [Example 50] | 0.13 µM | 0.08 µM | –
COc1cc(F)c([C@@H]2CN3CCN(C(=O)Cc4ccc(-n5cnnn5)nc4)C[C@H]3CO2)cc1C#N [Example 57, 4-fluoro-2-methoxy-5-[(3R,9aS)-8-{[6-(1H-tetrazol-1-vl)pvridin-3-yl]acetyl}octahydropyrazino[2,1-c][1,4]oxazin-3-yl]benzonitrile] | 0.19 µM | 0.21 µM | –
COc1c([C@H]2CN3CCN(C(=O)Cc4ccc(-n5cnnn5)nc4)C[C@H]3CO2)ccc(F)c1C#N [Example 61, 6-fluoro-2-methoxy-3-[(3S,9aS)-8-{[6-(1H-tetrazol-1-vl)pvridin-3-yl]acetyl}octahydropyrazino[2,1-c][1,4]oxazin-3-yl]benzonitrile] | 0.07 µM | 0.13 µM | –
Cc1nc(-n2cnnn2)ncc1CC(=O)N1CCN2C[C@H](c3ccc(F)c(C#N)c3C)OC[C@@H]2C1 [Example 121, 6-fluoro-2-methyl-3-[(3S,9aS)-8-{[4-methyl-2-(1H-tetrazol-1-yl)pyrimidin-5-yl]acetyl}octahydropyrazino[2,1-c][1,4]oxazin-3-yl]benzonitrile] | 0.09 µM | – | 0.12 µM
Cc1c([C@@H]2CN3CCN(C(=O)Cc4ccc(-n5cnnn5)nc4)C[C@H]3CN2)ccc(F)c1C#N [Example 194, 6-fluoro-2-methyl-3-[(3R,9aR)-8-{[6-(1H-tetrazol-1-yl)pyridin-3-yl]acetyl}octahydro-2H-pyrazino[1,2-a]pyrazin-3-yl]benzonitrile] | 0.06 µM | 0.06 µM | –
N#Cc1cc([C@@H]2CN3CCN(C(=O)Cc4cnc(-n5cnnn5)nc4)C[C@H]3CN2)ccc1F [Example 197, 2-fluoro-5-[(3R,9aR)-8-{[2-(1H-tetrazol-1-yl)pyrimidin-5-yl]acetyl}octahydro-2H-pyrazino[1,2-a]pyrazin-3-yl]benzonitrile] | – | 0.24 µM | –
Cc1c([C@@H]2CN3CCN(C(=O)Nc4ccc(-n5cnnn5)nc4)C[C@H]3CO2)ccc(F)c1C#N [Example 198, (3R,9aS)-3-(3-cyano-4-fluoro-2-methylphenyl)-N-[6-(1H-tetrazol-1-yl)pyridin-3-yl]hexahydropyrazino[2,1-c][1,4]oxazine-8(1H)-carboxamide] | – | 0.16 µM | –
Cc1c([C@@H]2CN3CCN(C(=O)Nc4ccc(-n5cnnn5)nc4)C[C@@H]3CO2)ccc(F)c1C#N [Example 199, (3R,9aR)-3-(3-cyano-4-fluoro-2-methylphenyl)-N-[6-(1H-tetrazol-1-yl)pyridin-3-yl]hexahydropyrazino[2,1-c][1,4]oxazine-8(1H)-carboxamide] | – | 0.14 µM | –
Cc1c([C@@H]2CN3CCN(C(=O)Nc4ccc(-n5cnnn5)cn4)C[C@@H]3CO2)ccc(F)c1C#N [Example 200, (3R,9aR)-3-(3-cyano-4-fluoro-2-methylphenyl)-N-[5-(1H-tetrazol-1-yl)pyridin-2-yl]hexahydropyrazino[2,1-c][1,4]oxazine-8(1H)-carboxamide] | – | 0.25 µM | –
Cc1c([C@@H]2CN3CCN(C(=O)Nc4ccc(-n5cnnn5)cn4)C[C@H]3CO2)ccc(F)c1C#N [Example 201, (3R,9aS)-3-(3-cyano-4-fluoro-2-methylphenyl)-N-[5-(1H-tetrazol-1-yl)pyridin-2-yl]hexahydropyrazino[2,1-c][1,4]oxazine-8(1H)-carboxamide] | – | 0.32 µM | –

— patent EP2790511B1 (Merck Sharp & Dohme Corp., priority 2011, dated 2013)
